Experimental data from US12459899B2, “Isoquinolinone derivatives, method for preparing the same, and pharmaceutical composition for preventing or treating poly(ADP-ribose) polymerase-1-related diseases, comprising the same as active ingredient” (DIGMBIO. INC., priority 2019, dated 2025).
pIC50: −log10 of the molar value. Where a name gives a salt, the structure may show the parent alone.

target: PARP-1 (poly[ADP-ribose] polymerase 1) enzyme (Homo sapiens (Human), UniProt P09874); assay: PARP-1 (poly[ADP-ribose] polymerase 1) enzyme inhibitory ability, Trevigen assay kit; type: biochemical; conditions: 1 nM compound; read-out: PAR P-1 Inhibitory ability at 1 nM
Outline: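 Human PARP-1 activity was measured with a Trevigen assay kit in histone-coated 96-well plates rehydrated with 50 μL of 1×PARP buffer for 30 minutes. Enzyme (0.5 unit/well) and compound were preincubated 10 minutes at room temperature, then 25 μL of 1×PARP cocktail with biotinylated NAD and activated DNA was added for 1 hour.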

Chain of PARP-1 (poly[ADP-ribose] polymerase 1) enzyme (P09874 whole entry): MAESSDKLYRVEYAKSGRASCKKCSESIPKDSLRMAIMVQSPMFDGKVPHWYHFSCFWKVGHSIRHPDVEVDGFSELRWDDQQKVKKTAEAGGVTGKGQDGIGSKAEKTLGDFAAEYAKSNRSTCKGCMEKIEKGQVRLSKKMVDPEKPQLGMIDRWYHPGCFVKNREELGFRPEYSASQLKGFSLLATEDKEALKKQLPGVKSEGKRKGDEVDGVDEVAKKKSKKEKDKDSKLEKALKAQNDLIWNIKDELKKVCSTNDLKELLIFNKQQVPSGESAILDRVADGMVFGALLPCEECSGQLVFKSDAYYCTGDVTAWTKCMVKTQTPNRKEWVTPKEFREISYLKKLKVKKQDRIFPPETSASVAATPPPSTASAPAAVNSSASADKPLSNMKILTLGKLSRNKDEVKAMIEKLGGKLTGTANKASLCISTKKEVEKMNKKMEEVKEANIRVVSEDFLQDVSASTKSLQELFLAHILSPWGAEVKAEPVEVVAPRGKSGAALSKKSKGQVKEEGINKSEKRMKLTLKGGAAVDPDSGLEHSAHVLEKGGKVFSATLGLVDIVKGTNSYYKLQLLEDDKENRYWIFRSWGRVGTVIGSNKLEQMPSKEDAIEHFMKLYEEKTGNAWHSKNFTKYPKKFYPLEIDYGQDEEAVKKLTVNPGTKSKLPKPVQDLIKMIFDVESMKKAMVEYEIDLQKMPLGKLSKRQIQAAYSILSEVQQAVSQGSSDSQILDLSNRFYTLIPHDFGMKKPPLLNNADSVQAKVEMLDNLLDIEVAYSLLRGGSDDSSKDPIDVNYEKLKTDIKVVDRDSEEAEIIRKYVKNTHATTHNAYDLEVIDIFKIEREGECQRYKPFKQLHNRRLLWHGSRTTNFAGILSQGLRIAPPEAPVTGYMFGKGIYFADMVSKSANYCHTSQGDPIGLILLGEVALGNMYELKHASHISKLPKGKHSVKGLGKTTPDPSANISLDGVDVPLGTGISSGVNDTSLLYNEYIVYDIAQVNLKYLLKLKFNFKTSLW

inhibition at 0.001 µM | Compound
< 50% | O=C(CCc1cc2ccc(F)cc2c(=O)[nH]1)N1CCN(C(=O)C2CCCCC2)CC1 [Example 172, 3-(3-(4-(cyclohexanecarbonyl)piperazin-1-yl)-3-oxopropyl)-7-fluoroisoquinolin-1(2H)-one]
< 50% | Cc1cc(F)cc2c(=O)[nH]c(CCC(=O)N3CCN(C(=O)C4CCCCC4)CC3)cc12 [Example 173, 3-(3-(4-(cyclohexanecarbonyl)piperazin-1-yl)-3-oxopropyl)-7-fluoro-5-methylisoquinolin-1(2H)-one]
< 50% | O=C(CCc1cc2cccc(F)c2c(=O)[nH]1)N1CCN(C(=O)C2CCCC2)CC1 [Example 174, 3-(3-(4-(cyclopentanecarbonyl)piperazin-1-yl)-3-oxopropyl)-8-fluoroisoquinolin-1(2H)-one]
< 50% | Cc1ccc(F)c2c(=O)[nH]c(CCC(=O)N3CCN(C(=O)C4CCCC4)CC3)cc12 [Example 175, 3-(3-(4-(cyclopentanecarbonyl)piperazin-1-yl)-3-oxopropyl)-8-fluoro-5-methylisoquinolin-1(2H)-one]
< 50% | O=C(CCc1cc2ccc(F)cc2c(=O)[nH]1)N1CCN(C(=O)C2CCCC2)CC1 [Example 176, 3-(3-(4-(cyclopentanecarbonyl)piperazin-1-yl)-3-oxopropyl)-7-fluoroisoquinolin-1(2H)-one]
< 50% | Cc1cc(F)cc2c(=O)[nH]c(CCC(=O)N3CCN(C(=O)C4CCCC4)CC3)cc12 [Example 177, 3-(3-(4-(cyclopentanecarbonyl)piperazin-1-yl)-3-oxopropyl)-7-fluoro-5-methylisoquinolin-1(2H)-one]
< 50% | O=C(CCc1cc2cccc(F)c2c(=O)[nH]1)N1CCN(C(=O)C2CCC2)CC1 [Example 178, 3-(3-(4-(cyclobutanecarbonyl)piperazin-1-yl)-3-oxopropyl)-8-fluoroisoquinolin-1(2H)-one]
< 50% | Cc1ccc(F)c2c(=O)[nH]c(CCC(=O)N3CCN(C(=O)C4CCC4)CC3)cc12 [Example 179, 3-(3-(4-(cyclobutanecarbonyl)piperazin-1-yl)-3-oxopropyl)-8-fluoro-5-methylisoquinolin-1(2H)-one]
< 50% | O=C(CCc1cc2ccc(F)cc2c(=O)[nH]1)N1CCN(C(=O)C2CCC2)CC1 [Example 180, 3-(3-(4-(cyclobutanecarbonyl)piperazin-1-yl)-3-oxopropyl)-7-fluoroisoquinolin-1(2H)-one]
< 50% | Cc1cc(F)cc2c(=O)[nH]c(CCC(=O)N3CCN(C(=O)C4CCC4)CC3)cc12 [Example 181, 3-(3-(4-(cyclobutanecarbonyl)piperazin-1-yl)-3-oxopropyl)-7-fluoro-5-methylisoquinolin-1(2H)-one]
< 50% | O=C(CCc1cc2cccc(F)c2c(=O)[nH]1)N1CCN(C(=O)C2CC2)CC1 [Example 182, 3-(3-(4-(cyclopropanecarbonyl)piperazin-1-yl)-3-oxopropyl)-8-fluoroisoquinolin-1(2H)-one]
< 50% | Cc1ccc(F)c2c(=O)[nH]c(CCC(=O)N3CCN(C(=O)C4CC4)CC3)cc12 [Example 183, 3-(3-(4-(cyclopropanecarbonyl)piperazin-1-yl)-3-oxopropyl)-8-fluoro-5-methylisoquinolin-1(2H)-one]
< 50% | O=C(CCc1cc2ccc(F)cc2c(=O)[nH]1)N1CCN(C(=O)C2CC2)CC1 [Example 184, 3-(3-(4-(cyclopropanecarbonyl)piperazin-1-yl)-3-oxopropyl)-7-fluoroisoquinolin-1(2H)-one]
< 50% | Cc1cc(F)cc2c(=O)[nH]c(CCC(=O)N3CCN(C(=O)C4CC4)CC3)cc12 [Example 185, 3-(3-(4-(cyclopropanecarbonyl)piperazin-1-yl)-3-oxopropyl)-7-fluoro-5-methylisoquinolin-1(2H)-one]
< 50% | CC(C)C(=O)N1CCN(C(=O)CCc2cc3cccc(F)c3c(=O)[nH]2)CC1 [Example 186, 8-fluoro-3-(3-(4-isobutyrylpiperazin-1-yl)-3-oxopropyl)isoquinolin-1(2H)-one]
< 50% | Cc1ccc(F)c2c(=O)[nH]c(CCC(=O)N3CCN(C(=O)C(C)C)CC3)cc12 [Example 187, 8-fluoro-3-(3-(4-isobutyrylpiperazin-1-yl)-3-oxopropyl)-5-methylisoquinolin-1(2H)-one]
< 50% | CC(C)C(=O)N1CCN(C(=O)CCc2cc3ccc(F)cc3c(=O)[nH]2)CC1 [Example 188, 7-fluoro-3-(3-(4-isobutyrylpiperazin-1-yl)-3-oxopropyl)isoquinolin-1(2H)-one]
< 50% | Cc1cc(F)cc2c(=O)[nH]c(CCC(=O)N3CCN(C(=O)C(C)C)CC3)cc12 [Example 189, 7-fluoro-3-(3-(4-isobutyrylpiperazin-1-yl)-3-oxopropyl)-5-methylisoquinolin-1(2H)-one]
< 50% | O=C(CCc1cc2cccc(F)c2c(=O)[nH]1)N1CCN(C(=O)C2CCCO2)CC1 (centres unmarked) [Example 190, 8-fluoro-3-(3-oxo-3-(4-(tetrahydrofuran-2-carbonyl)piperazin-1-yl)propyl)isoquinolin-1(2H)-one]
< 50% | Cc1ccc(F)c2c(=O)[nH]c(CCC(=O)N3CCN(C(=O)C4CCCO4)CC3)cc12 (centres unmarked) [Example 191, 8-fluoro-5-methyl-3-(3-oxo-3-(4-(tetrahydrofuran-2-carbonyl)piperazin-1-yl)propyl)isoquinolin-1(2H)-one]
< 50% | O=C(CCc1cc2ccc(F)cc2c(=O)[nH]1)N1CCN(C(=O)C2CCCO2)CC1 (centres unmarked) [Example 192, 7-fluoro-3-(3-oxo-3-(4-(tetrahydrofuran-2-carbonyl)piperazin-1-yl)propyl)isoquinolin-1(2H)-one]
< 50% | Cc1cc(F)cc2c(=O)[nH]c(CCC(=O)N3CCN(C(=O)C4CCCO4)CC3)cc12 (centres unmarked) [Example 193, 7-fluoro-5-methyl-3-(3-oxo-3-(4-(tetrahydrofuran-2-carbonyl)piperazin-1-yl)propyl)isoquinolin-1(2H)-one]
< 50% | Cc1ccc(F)c2c(=O)[nH]c(CCC(=O)N3CCN(C(=O)[C@H](C)N)CC3)cc12 [Example 194, 3-(3-(4-(L-alanyl)piperazin-1-yl)-3-oxopropyl)-8-fluoro-5-methylisoquinolin-1(2H)-one hydrochloride]
< 50% | Cc1ccc(F)c2c(=O)[nH]c(CCC(=O)N3CCN(C(=O)[C@@H](N)Cc4ccccc4)CC3)cc12 [Example 195, 3-(3-(4-(L-phenylalanyl)piperazin-1-yl)-3-oxopropyl)-8-fluoro-5-methylisoquinolin-1(2H)-one hydrochloride]
< 50% | Cc1ccc(F)c2c(=O)[nH]c(CCC(=O)N3CCN(C(=O)C4CCCN4)CC3)cc12 (centres unmarked) [Example 196, hydrochloride]

Compound | inhibition at 0.001 µM
Cc1ccc(F)c2c(=O)[nH]c(CCCN3C4CCC3CN(c3ccc(C#N)cc3)C4)cc12 [Example 197] | < 50%
Cc1ccc(F)c2c(=O)[nH]c(CCCN3C4CCC3CN(c3ccc(F)cc3)C4)cc12 [Example 198, 8-fluoro-3-(3-(3-(4-fluorophenyl)-3,8-diazabicyclo[3.2.1]octan-8-yl)propyl)-5-methylisoquinolin-1(2H)-one] | < 50%
Cc1ccc(F)c2c(=O)[nH]c(CCCN3C4CCC3CN(c3ccc(C#N)cn3)C4)cc12 [Example 199] | < 50%

same assay, conditions: PARP-1 enzyme activity

pIC50 | Compound
7.83 | Cc1ccc(F)c2c(=O)[nH]c(CCC(=O)N3CCN(C(=O)C4CC4)CC3)cc12 [Example 183, 3-(3-(4-(cyclopropanecarbonyl)piperazin-1-yl)-3-oxopropyl)-8-fluoro-5-methylisoquinolin-1(2H)-one]
